# Activity calls are given as the source filed them. No cut-off for these calls is given here.
# Tests used:
# [1] = biological target: T1, Rho-associated protein kinase 2 (Homo sapiens, UniProt O75116); assay: Inhibition of N-terminal His10-StrepII tagged human ROCK2 catalytic domain (1 to 553 residues) expressed in Sf9 insect cells by HTRF assay
# Target sequence in this assay (O75116 whole entry, the tested form may be a part): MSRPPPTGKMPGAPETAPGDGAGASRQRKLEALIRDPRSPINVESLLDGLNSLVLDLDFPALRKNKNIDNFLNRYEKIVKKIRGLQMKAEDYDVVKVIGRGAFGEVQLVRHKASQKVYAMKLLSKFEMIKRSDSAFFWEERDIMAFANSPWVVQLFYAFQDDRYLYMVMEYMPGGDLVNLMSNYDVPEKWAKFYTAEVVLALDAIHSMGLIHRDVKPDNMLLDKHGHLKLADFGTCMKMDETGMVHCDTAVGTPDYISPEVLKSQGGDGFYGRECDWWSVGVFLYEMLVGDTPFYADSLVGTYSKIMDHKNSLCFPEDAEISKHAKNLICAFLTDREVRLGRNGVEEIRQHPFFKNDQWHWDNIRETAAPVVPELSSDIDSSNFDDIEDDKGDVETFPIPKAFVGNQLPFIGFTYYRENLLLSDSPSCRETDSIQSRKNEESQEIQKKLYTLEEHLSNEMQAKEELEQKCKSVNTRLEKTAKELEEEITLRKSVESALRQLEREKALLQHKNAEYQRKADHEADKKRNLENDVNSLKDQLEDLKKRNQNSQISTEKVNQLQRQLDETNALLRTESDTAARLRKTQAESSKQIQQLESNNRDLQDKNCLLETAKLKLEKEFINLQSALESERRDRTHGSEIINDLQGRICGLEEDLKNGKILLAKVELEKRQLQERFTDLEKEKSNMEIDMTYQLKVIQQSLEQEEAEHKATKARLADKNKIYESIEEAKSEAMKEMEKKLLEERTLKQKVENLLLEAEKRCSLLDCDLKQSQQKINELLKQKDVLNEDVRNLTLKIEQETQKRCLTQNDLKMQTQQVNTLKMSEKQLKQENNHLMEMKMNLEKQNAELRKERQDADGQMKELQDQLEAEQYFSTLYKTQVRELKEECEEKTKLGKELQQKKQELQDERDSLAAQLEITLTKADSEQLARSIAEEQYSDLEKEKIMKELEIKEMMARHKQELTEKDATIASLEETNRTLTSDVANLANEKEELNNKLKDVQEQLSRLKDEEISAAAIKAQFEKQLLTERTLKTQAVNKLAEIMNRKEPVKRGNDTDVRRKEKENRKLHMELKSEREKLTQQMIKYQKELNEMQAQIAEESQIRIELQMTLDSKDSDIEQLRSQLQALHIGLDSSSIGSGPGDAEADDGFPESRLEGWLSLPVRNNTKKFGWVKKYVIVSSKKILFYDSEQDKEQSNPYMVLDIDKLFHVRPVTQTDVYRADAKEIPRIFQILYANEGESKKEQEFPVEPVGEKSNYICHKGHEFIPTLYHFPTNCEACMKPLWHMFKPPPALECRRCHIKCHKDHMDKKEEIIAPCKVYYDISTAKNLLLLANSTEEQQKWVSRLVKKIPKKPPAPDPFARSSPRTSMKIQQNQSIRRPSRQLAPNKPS
# [2] = system: MDA-MB-231; assay: Antimetastatic activity in human MDA-MB-231 cells assessed as increase in nuclear scales at 5 uM incubated for 24 hrs by FITC-conjugated phalloidin staining based confocal microscopic analysis; type: functional, cell-based
# [3] = system: MDA-MB-231; assay: Antimetastatic activity in human MDA-MB-231 cells assessed as effect on cell shapes at 5 uM incubated for 24 hrs by SEM analysis; type: functional, cell-based
# [4] = Toxicity in BALB/c nude mouse xenografted with human MDA-MB-231 cells harboring Luc-mcherry assessed as reduction in body weight at 15 mg/kg, iv administered once a day for 45 days; type: organism-based; conditions: in vivo, 1080 h, time 45 day
# [5] = system: SK-OV-3; assay: Inhibition of cell migration in human SK-OV-3 cells at 1.25 to 10 uM incubated for 48 hrs by scratch wound healing assay; type: functional, cell-based; conditions: dose 1.25-10 µM
# [6] = system: SK-OV-3; assay: Inhibition of cell invasion in human SK-OV-3 cells at 1.25 to 10 uM incubated for 48 hrs by crystal violet staining based transwell assay; type: functional; conditions: dose 1.25-10 µM
# [7] = system: MDA-MB-231; assay: Antiproliferative activity against human MDA-MB-231 cells assessed as suppression of cell growth incubated for 72 hrs by SRB assay; type: functional, cell-based; conditions: MDA-MB-231, 72 h
# [8] = system: SK-OV-3; assay: Antiproliferative activity against human SK-OV-3 cells assessed as suppression of cell growth incubated for 72 hrs by SRB assay; type: functional, cell-based; conditions: SK-OV-3, 72 h
# [9] = system: MDA-MB-231; assay: Downregulation of phosphorylated STAT1 protein expression in human MDA-MB-231 cells at 0.5 uM incubated for 24 hrs by Western blot analysis; type: functional, cell-based
# [10] = system: MDA-MB-231; assay: Downregulation of phosphorylated STAT2 protein expression in human MDA-MB-231 cells at 0.5 uM incubated for 24 hrs by Western blot analysis; type: functional, cell-based
# [11] = system: MDA-MB-231; assay: Upregulation of phosphorylated STAT5A protein expression in human MDA-MB-231 cells at 0.5 uM incubated for 24 hrs by Western blot analysis; type: functional, cell-based
# [12] = AUC (0 to t) in ICR mouse at 15 mg/kg, iv administered as single dose and measured for 8 hrs by LC-MS/MS analysis; type: ADME, organism-based; set-up: time 8 hrs, dose 15 mg/kg, route iv; conditions: in vivo
# [13] = MRT (0 to t) in ICR mouse at 15 mg/kg, iv administered as single dose and measured for 8 hrs by LC-MS/MS analysis; type: ADME, organism-based; conditions: in vivo
# [14] = MRT (0 to infinity) in ICR mouse at 15 mg/kg, iv administered as single dose and measured for 8 hrs by LC-MS/MS analysis; type: ADME, organism-based; conditions: in vivo
# [15] = Cmax in ICR mouse at 15 mg/kg, iv administered as single dose and measured for 8 hrs by LC-MS/MS analysis; type: ADME, organism-based; set-up: time 8 hrs, dose 15 mg/kg, route iv; conditions: in vivo
# [16] = Clearance in ICR mouse at 15 mg/kg, iv administered as single dose and measured for 8 hrs by LC-MS/MS analysis; type: ADME, organism-based; conditions: in vivo
# [17] = Volume of distribution at steady state in ICR mouse at 15 mg/kg, iv administered as single dose and measured for 8 hrs by LC-MS/MS analysis; type: ADME, organism-based; conditions: in vivo, read-out: Vdss
# [18] = Volume of distribution at terminal state in ICR mouse at 15 mg/kg, iv administered as single dose and measured for 8 hrs by LC-MS/MS analysis; type: ADME, organism-based; conditions: in vivo, read-out: Vz
# [19] = biological target: Rho-associated protein kinase 1 (Homo sapiens, UniProt Q13464); assay: Inhibition of ROCK1 (unknown origin)
# Chain of Rho-associated protein kinase 1 (Q13464 whole entry): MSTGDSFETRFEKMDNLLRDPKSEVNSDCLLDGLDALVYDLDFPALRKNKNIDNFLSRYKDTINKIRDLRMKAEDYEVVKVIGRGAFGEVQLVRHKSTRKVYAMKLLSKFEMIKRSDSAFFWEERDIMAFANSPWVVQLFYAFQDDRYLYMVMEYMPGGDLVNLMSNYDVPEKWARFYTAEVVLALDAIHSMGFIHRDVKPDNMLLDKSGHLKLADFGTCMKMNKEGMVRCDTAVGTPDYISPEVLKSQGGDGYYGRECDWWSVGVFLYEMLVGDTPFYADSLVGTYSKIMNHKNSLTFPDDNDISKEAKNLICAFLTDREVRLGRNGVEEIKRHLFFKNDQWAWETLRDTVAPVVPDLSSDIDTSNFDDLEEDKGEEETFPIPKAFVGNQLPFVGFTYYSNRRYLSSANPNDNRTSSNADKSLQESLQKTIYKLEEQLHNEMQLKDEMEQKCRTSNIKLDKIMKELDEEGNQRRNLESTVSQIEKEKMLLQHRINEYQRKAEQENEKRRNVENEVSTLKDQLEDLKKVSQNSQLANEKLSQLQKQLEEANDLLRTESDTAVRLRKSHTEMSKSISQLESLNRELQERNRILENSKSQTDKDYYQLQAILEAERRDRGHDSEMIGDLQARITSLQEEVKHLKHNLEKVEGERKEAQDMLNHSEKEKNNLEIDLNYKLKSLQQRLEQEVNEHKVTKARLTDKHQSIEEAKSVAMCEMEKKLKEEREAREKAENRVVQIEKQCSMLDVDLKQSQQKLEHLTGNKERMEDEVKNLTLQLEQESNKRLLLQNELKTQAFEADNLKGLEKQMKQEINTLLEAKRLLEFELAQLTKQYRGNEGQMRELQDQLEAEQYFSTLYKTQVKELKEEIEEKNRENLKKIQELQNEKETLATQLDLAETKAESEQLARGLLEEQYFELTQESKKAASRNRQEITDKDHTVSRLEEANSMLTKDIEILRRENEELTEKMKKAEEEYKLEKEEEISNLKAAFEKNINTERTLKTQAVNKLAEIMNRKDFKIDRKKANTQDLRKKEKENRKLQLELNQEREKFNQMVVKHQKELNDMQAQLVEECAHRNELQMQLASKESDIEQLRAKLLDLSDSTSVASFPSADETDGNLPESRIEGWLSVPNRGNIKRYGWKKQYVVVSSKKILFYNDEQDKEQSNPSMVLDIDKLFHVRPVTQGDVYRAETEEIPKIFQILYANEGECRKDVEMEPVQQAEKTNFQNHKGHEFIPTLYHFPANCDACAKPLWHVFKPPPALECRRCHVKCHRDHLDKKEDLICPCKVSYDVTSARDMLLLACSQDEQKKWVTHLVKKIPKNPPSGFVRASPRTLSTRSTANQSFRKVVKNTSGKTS
# [20] = biological target: Protein kinase C delta type (Homo sapiens, UniProt Q05655); assay: Inhibition of PKCdelta (unknown origin)
# Chain of Protein kinase C delta type (Q05655 whole entry): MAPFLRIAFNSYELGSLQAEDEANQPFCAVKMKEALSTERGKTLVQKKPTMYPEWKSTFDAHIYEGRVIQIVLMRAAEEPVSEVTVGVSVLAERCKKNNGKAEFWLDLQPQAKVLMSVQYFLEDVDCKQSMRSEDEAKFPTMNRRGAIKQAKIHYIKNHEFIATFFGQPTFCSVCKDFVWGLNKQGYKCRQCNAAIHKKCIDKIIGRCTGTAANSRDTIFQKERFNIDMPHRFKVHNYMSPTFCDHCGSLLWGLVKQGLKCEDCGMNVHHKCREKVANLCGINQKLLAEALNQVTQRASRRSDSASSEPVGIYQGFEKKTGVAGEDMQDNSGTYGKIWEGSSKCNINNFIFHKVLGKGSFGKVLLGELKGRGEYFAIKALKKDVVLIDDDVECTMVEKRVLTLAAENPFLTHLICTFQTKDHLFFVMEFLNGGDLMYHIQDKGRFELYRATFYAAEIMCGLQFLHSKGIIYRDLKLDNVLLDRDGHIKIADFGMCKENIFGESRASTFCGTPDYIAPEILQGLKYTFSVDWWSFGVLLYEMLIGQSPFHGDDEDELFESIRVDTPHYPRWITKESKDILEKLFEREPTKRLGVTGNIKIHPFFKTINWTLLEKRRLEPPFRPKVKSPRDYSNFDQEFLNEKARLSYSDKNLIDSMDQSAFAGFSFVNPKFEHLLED
# [21] = biological target: Inhibitor of nuclear factor kappa-B kinase subunit beta (Homo sapiens, UniProt O14920); assay: Inhibition of IKKbeta (unknown origin)
# [22] = biological target: Serine/threonine-protein kinase pim-1 (Homo sapiens, UniProt P11309); assay: Inhibition of PIM1 (unknown origin)
# Chain of Serine/threonine-protein kinase pim-1 (P11309 whole entry): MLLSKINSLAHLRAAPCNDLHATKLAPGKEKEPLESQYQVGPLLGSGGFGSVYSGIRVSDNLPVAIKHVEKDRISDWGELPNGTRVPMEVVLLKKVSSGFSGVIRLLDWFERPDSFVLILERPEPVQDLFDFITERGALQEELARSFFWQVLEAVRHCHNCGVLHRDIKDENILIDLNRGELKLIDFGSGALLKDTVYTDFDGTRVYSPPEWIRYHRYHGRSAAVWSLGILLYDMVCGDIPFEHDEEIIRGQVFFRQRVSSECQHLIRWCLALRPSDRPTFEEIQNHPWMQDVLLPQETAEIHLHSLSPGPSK
# [23] = biological target: Mitogen-activated protein kinase kinase kinase 5 (Homo sapiens, UniProt Q99683); assay: Inhibition of ASK1 (unknown origin)
# [24] = Selectivity index, ratio of IC50 for ROCK2 (unknown origin) to IC50 for N-terminal His10-StrepII tagged human ROCK2 catalytic domain (1 to 553 residues) expressed in Sf9 insect cells
# [25] = Selectivity index, ratio of IC50 for PKCdelta (unknown origin) to IC50 for N-terminal His10-StrepII tagged human ROCK2 catalytic domain (1 to 553 residues) expressed in Sf9 insect cells
# [26] = Drug uptake in lung of ICR mouse at 15 mg/kg, iv administered as single dose and measured after 0.25 to 4 hrs by LC-MS/MS analysis; type: ADME, organism-based; conditions: in vivo, time 0.25-4 hrs
# [27] = biological target: Signal transducer and activator of transcription 3 (Homo sapiens) (UniProt P40763); assay: Inhibition of STAT3 activation in human MDA-MB-231 cells assessed as reduction in STAT3 phosphorylation at Y705 residue at 1.25 to 10 uM incubated for 24 hrs by Western blot analysis; type: cell-based; conditions: dose 1.25-10 µM
# Chain of Signal transducer and activator of transcription 3 (Homo sapiens) (P40763 whole entry): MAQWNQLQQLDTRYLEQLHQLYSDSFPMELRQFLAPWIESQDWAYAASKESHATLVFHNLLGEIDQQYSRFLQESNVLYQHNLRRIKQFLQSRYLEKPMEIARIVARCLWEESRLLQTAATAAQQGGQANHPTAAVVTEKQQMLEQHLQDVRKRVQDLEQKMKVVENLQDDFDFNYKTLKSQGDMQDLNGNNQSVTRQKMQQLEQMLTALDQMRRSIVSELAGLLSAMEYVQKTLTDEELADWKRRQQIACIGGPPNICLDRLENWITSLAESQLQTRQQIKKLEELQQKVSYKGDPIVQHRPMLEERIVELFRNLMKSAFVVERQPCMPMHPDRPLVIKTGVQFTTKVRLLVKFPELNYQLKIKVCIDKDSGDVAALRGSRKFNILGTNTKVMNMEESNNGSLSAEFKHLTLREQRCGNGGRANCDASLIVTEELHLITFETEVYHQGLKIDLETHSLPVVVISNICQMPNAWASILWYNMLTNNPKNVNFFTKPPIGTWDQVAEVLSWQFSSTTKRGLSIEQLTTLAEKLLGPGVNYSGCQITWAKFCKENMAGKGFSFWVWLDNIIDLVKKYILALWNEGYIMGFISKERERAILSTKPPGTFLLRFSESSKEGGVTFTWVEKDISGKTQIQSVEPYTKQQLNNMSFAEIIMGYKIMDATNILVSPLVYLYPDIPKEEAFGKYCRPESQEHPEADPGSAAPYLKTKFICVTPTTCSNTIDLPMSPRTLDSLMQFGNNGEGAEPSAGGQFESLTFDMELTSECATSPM
# [28] = biological target: Signal transducer and activator of transcription 3 (Homo sapiens) (UniProt P40763); assay: Inhibition of STAT3 transcriptional activity in human MDA-MB-231 cells assessed as reduction in TWIST1 mRNA level at 5 uM incubated for 24 hrs by qRT-PCR analysis; type: cell-based
# [29] = system: MDA-MB-231; assay: Inhibition of IL-6 stimulated cell invasion in human MDA-MB-231 cells at 5 uM incubated for 24 hrs by crystal violet staining based transwell assay; type: functional
# [30] = system: MDA-MB-231; assay: Inhibition of IL-6 stimulated phosphorylated STAT3 at Y705 residue expression in human MDA-MB-231 cells at 5 uM incubated for 24 hrs by Western blot analysis; type: functional, cell-based
# [31] = biological target: T1, Rho-associated protein kinase 2; assay: Binding affinity to wild type N-terminal His10-StrepII tagged human ROCK2 catalytic domain (1 to 553 residues) expressed in Sf9 insect cells assessed as change in melting temperature at 50 uM by SYPRO orange dye based thermal shift assay
# Target sequence in this assay (O75116 whole entry, looked up, the tested form may be a part): as the sequence (O75116 whole entry, the tested form may be a part) above
# [32] = system: Rho-associated protein kinase 2 (Homo sapiens), O75116 [K121A]; assay: Binding affinity to N-terminal His10-StrepII tagged human ROCK2 K121A mutant catalytic domain (1 to 553 residues) expressed in Sf9 insect cells assessed as change in melting temperature at 50 uM by SYPRO orange dye based thermal shift assay
# Chain of Rho-associated protein kinase 2 (Homo sapiens), O75116 [K121A] (O75116 whole entry K121A, the tested form may be a part): as the sequence (O75116 whole entry, the tested form may be a part) above, with K121A counted along it
# [33] = system: Rho-associated protein kinase 2 (Homo sapiens), O75116 [E140A]; assay: Binding affinity to N-terminal His10-StrepII tagged human ROCK2 E140A mutant catalytic domain (1 to 553 residues) expressed in Sf9 insect cells assessed as change in melting temperature at 50 uM by SYPRO orange dye based thermal shift assay
# Chain of Rho-associated protein kinase 2 (Homo sapiens), O75116 [E140A] (O75116 whole entry E140A, the tested form may be a part): as the sequence (O75116 whole entry, the tested form may be a part) above, with E140A counted along it
# [34] = biological target: Ribosomal protein S6 kinase alpha-6 (Homo sapiens) (UniProt Q9UK32); assay: Inhibition of human recombinant RSK4 at 125 nM
# [35] = biological target: Maternal embryonic leucine zipper kinase (Homo sapiens) (UniProt Q14680); assay: Inhibition of human recombinant MELK at 125 nM
smiles,measurement,setting,value
O=C1NCc2c1c1c3cc(O)ccc3[nH]c1c1[nH]c3ccccc3c21,IC50,[1],6 nM
same,Activity,[2],Active
same,Activity,[3],Active
same,Activity,[4],Non-Toxic
same,inhibition,[5],Active
same,inhibition,[6],Active
same,IC50,[7],7190 nM
same,IC50,[8],4440 nM
same,Activity,[9],Active
same,Activity,[10],Active
same,Activity,[11],Active
same,AUC(0-t) at 8 h,[12],6240 ng·h/mL
same,MRT last at 8 h,[13],10.8 min
same,MRT inf,[14],10.8 min
same,Cmax,[15],21600 ng/mL
same,clearance,[16],29.3 mL/min/kg
same,Vd,[17],0.32 L/kg
same,Vd,[18],4.87 L/kg
same,IC50,[19],923 nM
same,IC50,[20],60.7 nM
same,IC50,[21],139 nM
same,IC50,[22],308 nM
same,IC50,[23],944 nM
same,Ratio IC50,[24],> 100
same,Ratio IC50,[25],> 10
same,Drug uptake,[26],Active
same,inhibition,[27],Active
same,inhibition,[28],Active
same,inhibition,[29],Active
same,inhibition,[30],Active
same,Activity,[31],Active
same,Activity,[32],inactive
same,Activity,[33],inactive
same,inhibition,[34],Active
same,inhibition,[35],Active
